Measured values published in patent US7622492B2, “Pyrazolones as inhibitors of 11β-hydroxysteroid dehydrogenase” (Hoffmann-La Roche Inc., priority 2005, dated 2009).

How the values were obtained:
human 11betaHSD1 = molecular target: T1, human 11betaHSD1 (Homo sapiens, UniProt P28845); experiment: Cell-based assay: HEK-293 cells stably transfected with human 11betaHSD1, cortisol by competitive ELISA; conditions: HEK-293 cells stably transfected with full-length human 11betaHSD1 cDNA, cortisone 100 nM, 1 hour
T1 construct: HEK-293 cells stably transfected with full-length human 11betaHSD1 cDNA; expressed in transfected cells; host or cells: HEK-293
Protocol: The following day, serially diluted 11bHSD1 inhibitor compounds dissolved in DMSO were added to plating media supplemented with BSA (2 mg/ml final). The final DMSO concentration was 1%. Media was aspirated from plates, and compounds in media were added to each well. The plates were incubated at 37° C. for 1 hour to allow for cellular uptake of compounds. 10 μL of substrate (cortisone) was then added to each well (100 nM final concentration) and incubated for 1 hour at 37° C. Plates were then transferred to ice and 80 μL of media transferred to a 96-well plate and stored at −30° C.
Plates were washed with PBS, 0.1% Tween-20, then washed with PBS alone. Plates were blocked with Blocking Buffer (Tropix Cat# AI075) for 2 hours at room temperature. The plates were then washed as previously described. Assay samples were thawed, diluted 1:4 in DMEM, 2 mg/mL BSA, 1% DMSO, and 24 μL was transferred to wells of a pre-coated 384-well plate, as well as varying amounts of cortisol standard. To each well, 12 μL of cortisol-conjugate and 12 μL of anti-cortisol EIA antibody were added and incubated 2 hrs at room temperature on a orbital plate shaker. The wells were then emptied by inversion, then washed three times with 100 μL of Wash Buffer (Tropix), and then 2 times with 100 μL of Assay Buffer (Tropix). 60 μL of CDP-STAR (Tropix) was added to each well and incubated 10 minutes at room temperature. Chemiluminescence was measured using a Victor V Reader (Perkin Elmer). Cortisol in each sample was interpolated from a standard curve generated with known amounts of cortisol. IC50 values were calculated using the curve fitting software XLFit3 (IDBS).

human HSD1 = human HSD1 (Homo sapiens, UniProt P28845); experiment: In vitro inhibition of purified human HSD1 (time-resolved fluorescence cortisol detection); format: biochemical; conditions: purified human HSD1, cortisone substrate, 30 min; read-out: hHSD1 IC50
Protocol: Purified human HSD1 was diluted in 50 mM Tris-HCl, 100 mM NaCl, 0.1 mg/ml BSA, 0.02% Lubrol, 20 mM MgCl2, 10 mM glucose 6-phosphate, 0.4 mM NADPH, 60 U/ml glucose 6-phosphate dehydrogenase to a concentration of 1.5 μg/ml (Enzyme Solution). […] Testing compounds (40 μM) in DMSO was diluted 3 fold in series in DMSO and further diluted 20 fold in Substrate Solution. Enzyme Solution (10 μl/well) was added into 384 well microtiter plates followed by diluted compound solutions (10 μl/well) and mixed well. Samples were then incubated at […] for 30 min. EDTA/biotin-cortisol solution (10 μl/well) in 28 mM EDTA, […], 50 mM Tris-HCl, 100 mM NaCl was then added followed by 5 ul/well of anti-cortisol antibody (3.2 μg/ml) in 50 mM Tris-HCl, 100 mM NaCl, 0.1 mg/ml BSA and the solution was incubated at 37 degrees for 30 min. […] Signals were quantitated by reading time-resolved fluorescence on a Victor 5 reader (Wallac).

Sequence of human HSD1 (P28845 whole entry): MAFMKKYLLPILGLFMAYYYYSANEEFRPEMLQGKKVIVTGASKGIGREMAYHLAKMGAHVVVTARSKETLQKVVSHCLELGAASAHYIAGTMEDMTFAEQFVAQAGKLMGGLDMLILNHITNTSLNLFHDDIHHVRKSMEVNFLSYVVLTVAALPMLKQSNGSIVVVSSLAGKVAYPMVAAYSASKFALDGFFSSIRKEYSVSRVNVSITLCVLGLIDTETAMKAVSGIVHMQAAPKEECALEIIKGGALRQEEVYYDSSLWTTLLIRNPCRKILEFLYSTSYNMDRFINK
T1 sequence (P28845 whole entry): as above

Row | Structure (SMILES) | IC50 (human 11betaHSD1) [nM] | IC50 (human HSD1) [nM]
1 | Cc1cccc(-n2c(=O)c3c(n2Cc2ccccc2)[C@@]2(C)CC[C@@H]3C2(C)C)c1C [Example 137, (4R,7S)-1-Benzyl-2-(2,3-dimethyl-phenyl)-7,8,8-trimethyl-1,2,4,5,6,7-hexahydro-4,7-methano-indazol-3-one] | 4 | 
2 | CC(C)CCn1c2c(c(=O)n1-c1ccc(F)cc1F)[C@H]1CC[C@]2(C)C1(C)C [Example 87, (4S,7R)-2-(2,4-Difluoro-phenyl)-7,8,8-trimethyl-1-(3-methyl-butyl)-1,2,4,5,6,7-hexahydro-4,7-methano-indazol-3-one] | 14 | 
3 | CC(C)c1cccc(-n2c(=O)c3c(n2C)[C@]2(C)CC[C@H]3C2(C)C)c1 [Example 75, (4S,7R)-2-(3-Isopropyl-phenyl)-1,7,8,8-tetramethyl-1,2,4,5,6,7-hexahydro-4,7-methano-indazol-3-one] | 17 | 
4 | Cn1c2c(c(=O)n1-c1ccccc1F)[C@H]1CC[C@]2(C)C1(C)C [Example 12, (4S,7R)-2-(2-Fluoro-phenyl)-1,7,8,8-tetramethyl-1,2,4,5,6,7-hexahydro-4,7-methano-indazol-3-one] | 19 | 291
5 | Cn1c2c(c(=O)n1Cc1ccc(F)cc1C(F)(F)F)[C@H]1CC[C@]2(C)C1(C)C [Example 37, (4S,7R)-2-(4-Fluoro-2-trifluoromethyl-benzyl)-1,7,8,8-tetramethyl-1,2,4,5,6,7-hexahydro-4,7-methano-indazol-3-one] | 27 | 
6 | Cn1c2c(c(=O)n1-c1cc(F)ccc1C(F)(F)F)[C@H]1CC[C@]2(C)C1(C)C [Example 133, (4S,7R)-2-(5-Fluoro-2-trifluoromethyl-phenyl)-1,7,8,8-tetramethyl-1,2,4,5,6,7-hexahydro-4,7-methano-indazol-3-one] | 21 | 
7 | CC1(C)[C@@H]2CC[C@@]1(C)c1c2c(=O)n(-c2ccc(F)cc2F)n1Cc1ccc(C(F)(F)F)cc1 [Example 103, (4S,7R)-2-(2,4-Difluoro-phenyl)-7,8,8-trimethyl-1-(4-trifluoromethyl-benzyl)-1,2,4,5,6,7-hexahydro-4,7-methano-indazol-3-one] | 11 | 
8 | Cn1c2c(c(=O)n1Cc1ccc(C(N)=O)cc1)[C@H]1CC[C@]2(C)C1(C)C [Example 39, (4S,7R)-4-(1,7,8,8-Tetramethyl-3-oxo-1,3,4,5,6,7-hexahydro-4,7-methano-indazol-2-ylmethyl)-benzamide] | 243 | 101
9 | Cc1cccc(-n2c(=O)c3c(n2C)[C@]2(C)CC[C@H]3C2(C)C)c1C [Example 21, (4S,7R)-2-(2,3-Dimethyl-phenyl)-1,7,8,8-tetramethyl-1,2,4,5,6,7-hexahydro-4,7-methano-indazol-3-one] | 19 | 10
10 | CC1(C)[C@@H]2CC[C@@]1(C)c1c2c(=O)n(-c2ccc(F)cc2Cl)n1Cc1ccc(F)cc1F [Example 123, (4S,7R)-2-(2-Chloro-4-fluoro-phenyl)-1-(2,4-difluoro-benzyl)-7,8,8-trimethyl-1,2,4,5,6,7-hexahydro-4,7-methano-indazol-3-one] | 9 | 
11 | CC(C)(C)c1ccc(Cn2c3c(c(=O)n2-c2ccc(F)cc2F)[C@H]2CC[C@]3(C)C2(C)C)cc1 [Example 98, (4S,7R)-1-(4-tert-Butyl-benzyl)-2-(2,4-difluoro-phenyl)-7,8,8-trimethyl-1,2,4,5,6,7-hexahydro-4,7-methano-indazol-3-one] | 28 | 
12 | Cn1c2c(c(=O)n1-c1cc(C(F)(F)F)ccc1F)[C@H]1CC[C@]2(C)C1(C)C [Example 132, (4S,7R)-2-(2-Fluoro-5-trifluoromethyl-phenyl)-1,7,8,8-tetramethyl-1,2,4,5,6,7-hexahydro-4,7-methano-indazol-3-one] | 210 | 
13 | CC1(C)[C@@H]2CC[C@@]1(C)c1c2c(=O)n(-c2ccccc2)n1CCc1ccccc1 [Example 66, (4S,7R)-7,8,8-Trimethyl-1-phenethyl-2-phenyl-1,2,4,5,6,7-hexahydro-4,7-methano-indazol-3-one] | 19 | 
14 | Cn1c2c(c(=O)n1Cc1cccc(F)c1)[C@H]1CC[C@]2(C)C1(C)C [Example 32, (4S,7R)-2-(3-Fluoro-benzyl)-1,7,8,8-tetramethyl-1,2,4,5,6,7-hexahydro-4,7-methano-indazol-3-one] | 60 | 23
15 | Cn1c2c(c(=O)n1-c1cccc(-c3ccccc3)c1)[C@H]1CC[C@]2(C)C1(C)C [Example 43, (4S,7R)-2-Biphenyl-3-yl-1,7,8,8-tetramethyl-1,2,4,5,6,7-hexahydro-4,7-methano-indazol-3-one] | 25 | 59
16 | CC1(C)[C@H]2CC[C@]1(C)c1c2c(=O)n(-c2ccc(F)cc2Cl)n1Cc1ccccc1 [Example 120, (4R,7S)-1-Benzyl-2-(2-chloro-4-fluoro-phenyl)-7,8,8-trimethyl-1,2,4,5,6,7-hexahydro-4,7-methano-indazol-3-one] | 18 | 
17 | CC1(C)[C@H]2CC[C@]1(C)c1c2c(=O)n(-c2ccc3ccccc3c2)n1Cc1ccccc1 [Example 145, (4R,7S)-1-Benzyl-7,8,8-trimethyl-2-naphthalen-2-yl-1,2,4,5,6,7-hexahydro-4,7-methano-indazol-3-one] | 21 | 
18 | Cc1nc(Cn2c(=O)c3c(n2Cc2ccccc2)[C@@]2(C)CC[C@@H]3C2(C)C)cs1 [Example 150, (4R,7S)-1-Benzyl-7,8,8-trimethyl-2-(2-methyl-thiazol-4-ylmethyl)-1,2,4,5,6,7-hexahydro-4,7-methano-indazol-3-one] | 208 | 
19 | CC1(C)[C@H]2CC[C@]1(C)c1c2c(=O)n(-c2ccc(F)cc2Cl)n1Cc1ccc(F)cc1F [Example 122, (4R,7S)-2-(2-Chloro-4-fluoro-phenyl)-1-(2,4-difluoro-benzyl)-7,8,8-trimethyl-1,2,4,5,6,7-hexahydro-4,7-methano-indazol-3-one] | 21 | 
20 | COc1ccc(Cn2c3c(c(=O)n2-c2ccc(F)cc2F)[C@H]2CC[C@]3(C)C2(C)C)cc1 [Example 99, (4S,7R)-2-(2,4-Difluoro-phenyl)-1-(4-methoxy-benzyl)-7,8,8-trimethyl-1,2,4,5,6,7-hexahydro-4,7-methano-indazol-3-one] | 14 | 
21 | Cn1c2c(c(=O)n1-c1ccc(F)cc1)[C@H]1CC[C@]2(C)C1(C)C [Example 17, (4S,7R)-2-(4-Fluoro-phenyl)-1,7,8,8-tetramethyl-1,2,4,5,6,7-hexahydro-4,7-methano-indazol-3-one] | 110 | 1720
22 | Cn1c2c(c(=O)n1-c1ccc(O)cc1)[C@H]1CC[C@]2(C)C1(C)C [Example 76, (4S,7R)-2-(4-Hydroxy-phenyl)-1,7,8,8-tetramethyl-1,2,4,5,6,7-hexahydro-4,7-methano-indazol-3-one] | 20 | 
23 | COc1cccc(Cn2c(=O)c3c(n2C)[C@]2(C)CC[C@H]3C2(C)C)c1 [Example 34, (4S,7R)-2-(3-Methoxy-benzyl)-1,7,8,8-tetramethyl-1,2,4,5,6,7-hexahydro-4,7-methano-indazol-3-one] | 134 | 472
24 | Cn1c2c(c(=O)n1-c1ccc3ccccc3c1)[C@H]1CC[C@]2(C)C1(C)C [Example 144, (4S,7R)-1,7,8,8-Tetramethyl-2-naphthalen-2-yl-1,2,4,5,6,7-hexahydro-4,7-methano-indazol-3-one] | 24 | 
25 | Cn1c2c(c(=O)n1-c1cccc(Cl)c1Cl)[C@H]1CC[C@]2(C)C1(C)C [Example 126, (4S,7R)-2-(2,3-Dichloro-phenyl)-1,7,8,8-tetramethyl-1,2,4,5,6,7-hexahydro-4,7-methano-indazol-3-one] | 6 | 
26 | COc1ncccc1Cn1c2c(c(=O)n1-c1ccc(F)cc1F)[C@@H]1CC[C@@]2(C)C1(C)C [Example 113, (4R,7S)-2-(2,4-Difluoro-phenyl)-1-(2-methoxy-pyridin-3-ylmethyl)-7,8,8-trimethyl-1,2,4,5,6,7-hexahydro-4,7-methano-indazol-3-one] | 36 | 
